Test results: EPA's ToxValDB 9.5 (doi:10.2903/j.efsa.2009.1354)
Converted amounts (≈) assume the structure as drawn. “And” between values parts separate entries of the source, which are not always exact repeats. Identical values can stand only once.

What was measured:
Anas platyrhynchos [1] = assay: LC10; higher = less toxic; settings: short-term; duration: 14 days; oral; feed; mortality
Anas platyrhynchos [2] = settings: for LD50: acute, unspecified; for LD50 / LC50: oral, mortality; for LC50: short-term, feed
Daphnia magna = settings: chronic/long-term; duration: 21 days; reproduction
Folsomia candida = settings: chronic/long-term; duration: 28 days
Phasianus sp. = settings: oral, mortality; for LD50: acute, unspecified
Colinus virginianus = settings: for LC50 / LD50: acute, oral, mortality; for LC50: diet
Oncorhynchus mykiss = settings: chronic/long-term; duration: 14 days; growth
Cucumis sativus = settings: acute; duration: 21 days; biomass
Aphidius rhopalosiphi = settings: acute; duration: 2 days; mortality
Hypoaspis aculeifer = settings: chronic/long-term; duration: 16 days; reproduction
Oryctolagus sp. = settings: acute; oral; mortality
Coturnix japonica = settings: acute, oral, mortality
Lepomis macrochirus = settings: acute; duration: 96 hours; mortality
Apis mellifera = settings: acute; duration: 48 hours; dermal; mortality

SMILES: CCCCN(CCCC)SN(C)C(=O)Oc1cccc2c1OC(C)(C)C2 [Carbosulfan]
- LC10 (Anas platyrhynchos [1]): 0.64 mg/kg-day
- LD50 (Anas platyrhynchos [2]; F): 0.86 mg/kg-day
- LD50 (Anas platyrhynchos [2]; M): 0.71 mg/kg-day
- NOEL (Anas platyrhynchos [2]; reproductive): 2.5 mg/kg-day
- LC50 (Anas platyrhynchos [2]; duration: 5 days): 10 mg/kg-day and 17 mg/kg-day
- LC50 (Anas platyrhynchos [2]; duration: 14 days): 1.6 mg/kg-day
- LC50 (Anas platyrhynchos [2]): 3.99 mg/kg-day
- NOEC (Daphnia magna): 0.0032 mg/L
- NOEC (Folsomia candida): 0.3 mg/kg
- NOAEL (Rattus norvegicus; acute, clinical chemistry): 0.5 mg/kg-day
- LD50 (Rattus norvegicus; acute, oral, mortality): < 5.6 mg/kg-day
- NOAEL (Rattus norvegicus; chronic): 0.1 mg/kg-day
- NOAEL (Rattus norvegicus; reproduction developmental, reproduction): 1.2 mg/kg-day
- LD50 (Phasianus sp.; F): 6.2 mg/kg-day
- LD50 (Phasianus sp.; M): 4 mg/kg-day
- LD50 (Phasianus sp.): 20 mg/kg-day
- LC50 (Phasianus sp.; short-term, feed): 567 mg/kg-day
- LC50 (Colinus virginianus; duration: 5 days): 114 mg/kg-day
- LC50 (Colinus virginianus; duration: 7 days): 20.8 mg/kg-day
- LC50 (Colinus virginianus; duration: 14 days): 15.8 mg/kg-day
- LD50 (Colinus virginianus; M/F): 8 mg/kg-day
- LC50 (Colinus virginianus): 239 mg/kg-day
- LD50 (Colinus virginianus): 82 mg/kg-day
- NOEL (Colinus virginianus; reproduction developmental): 10.8 mg/kg-day
- NOEC (Oncorhynchus mykiss): 0.004 mg/L
- LEL (Cucumis sativus): 1500 g/ha
- LEL (Aphidius rhopalosiphi): 120 g/ha
- NOEC (Hypoaspis aculeifer): 20 mg/kg
- LD50 (Oryctolagus sp.): 42.7 mg/kg-day
- LD50 (Coturnix japonica; F): 3.5 mg/kg-day
- LD50 (Coturnix japonica; M): 4.9 mg/kg-day
- LC50 (Lepomis macrochirus): 0.015 µg/mL (≈ 0.0394 µM)
- LD50 (Apis mellifera): 0.18 µg/piece
